Patent US20230167118A1, “DEGRADATION OF BRUTON'S TYROSINE KINASE (BTK) BY CONJUGATION OF BTK INIDBITORS WITH E3 LIGASE LIGAND AND METHODS OF USE” (BEIGENE, LTD., priority 2020, published 2023)

How the values were obtained:
[1] = target: T1, BTK (Homo sapiens, UniProt Q06187); assay: Cell Degradation: BTK degradation in TMD-8 cells, HTRF assay; type: cell-based; conditions: 6 h treatment, IC50 (DC50) of BTK degradation
T1 construct: High control=Cell group with added DMSO and without compound, indicating microplate readings without BTK degradation; endogenous in cells; host or cells: TMD-8 cells
Outline: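 TMD-8 cells treated 6 h with 8-dose 6-fold dilutions in 0.2% DMSO, then lysed and BTK quantified by HTRF (665/620 nm). Degradation % normalised to high/low controls; DC50 from four-parameter fit, Dmax as maximal degradation.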

[2] = system: HEK-293 cells; assay: HEK-293 Cytotoxicity Assay (CellTiter-Glo); type: cell-based; conditions: Homo sapiens, HEK293, 72 h incubation, CellTiter-Glo luminescence
Outline: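 HEK-293 cells treated 72 h with 8 concentrations (4-fold dilutions, 0.2% DMSO final). Viability read by CellTiter-Glo luminescence; IC50 from four-parameter logistic fit of % inhibition.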

T1 sequence (Q06187 whole entry): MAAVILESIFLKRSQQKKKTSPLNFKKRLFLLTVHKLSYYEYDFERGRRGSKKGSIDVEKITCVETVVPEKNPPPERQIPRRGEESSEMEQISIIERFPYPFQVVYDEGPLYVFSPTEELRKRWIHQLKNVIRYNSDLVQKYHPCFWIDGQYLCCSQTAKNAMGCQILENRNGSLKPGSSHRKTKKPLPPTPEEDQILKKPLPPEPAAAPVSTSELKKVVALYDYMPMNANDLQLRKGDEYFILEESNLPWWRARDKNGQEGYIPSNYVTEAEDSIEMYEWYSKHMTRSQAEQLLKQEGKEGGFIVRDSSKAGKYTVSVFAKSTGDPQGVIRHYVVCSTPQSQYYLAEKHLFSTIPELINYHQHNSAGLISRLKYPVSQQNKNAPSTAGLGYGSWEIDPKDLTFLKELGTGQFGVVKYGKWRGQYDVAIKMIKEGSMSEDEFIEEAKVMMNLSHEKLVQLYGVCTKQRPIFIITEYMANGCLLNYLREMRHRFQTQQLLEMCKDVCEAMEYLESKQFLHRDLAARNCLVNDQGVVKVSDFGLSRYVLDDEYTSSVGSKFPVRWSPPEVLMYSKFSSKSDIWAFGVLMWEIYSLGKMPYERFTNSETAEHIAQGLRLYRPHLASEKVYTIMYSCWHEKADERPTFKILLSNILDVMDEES

Row | SMILES | DC50 [1] | IC50 [2]
1 | Cc1cc(-c2ncnc3[nH]c(-c4ccc(N5CCN(CC6CCN(c7ccc(N8CC(=O)NC8=O)cc7)CC6)CC5)cn4)cc23)ccc1[C@@H](C)NC(=O)c1nc(C(C)(C)C)no1 [Example 184, (R)-3-(tert-butyl)-N-(1-(4-(6-(5-(4-((1-(4-(2,4-dioxoimidazolidin-1-yl)phenyl)piperidin-4-yl)methyl)piperazin-1-yl)pyridin-2-yl)-7H-pyrrolo[2,3-d]pyrimidin-4-yl)-2-methylphenyl)ethyl)-1,2,4-oxadiazole-5-carboxamide] | 2.7 nM | > 10000 nM
2 | Cc1cc(-c2ncnc3[nH]c(-c4ccc(N5CCN(CC6CCN(c7ccc(N8CCC(=O)NC8=O)c(C)c7)CC6)CC5)nc4)cc23)c(F)cc1[C@@H](C)NC(=O)c1noc(C(C)(C)C)n1 [Example 132, (R)-5-(tert-butyl)-N-(1-(4-(6-(6-(4-((1-(4-(2,4-dioxotetrahydropyrimidin-1(2H)-yl)-3-methylphenyl)piperidin-4-yl)methyl)piperazin-1-yl)pyridin-3-yl)-7H-pyrrolo[2,3-d]pyrimidin-4-yl)-5-fluoro-2-methylphenyl)ethyl)-1,2,4-oxadiazole-3-carboxamide] | 0.79 nM | > 10000 nM
3 | Cc1cc(-c2ncnc3[nH]c(-c4ccc(N5CCN(CC6CCN(c7ccc(N8CCC(=O)NC8=O)cc7)CC6)CC5)cc4)cc23)ccc1CNC(=O)c1cn(C(C)(C)C)nn1 [Example 37, 1-(tert-butyl)-N-(4-(6-(4-(4-((1-(4-(2,4-dioxotetrahydropyrimidin-1(2H)-yl)phenyl)piperidin-4-yl)methyl)piperazin-1-yl)phenyl)-7H-pyrrolo[2,3-d]pyrimidin-4-yl)-2-methylbenzyl)-1H-1,2,3-triazole-4-carboxamide] | 1.2 nM | > 10000 nM
4 | Cc1cc(-c2ncnc3[nH]c(-c4ccc(N5CCN(CC6CCN(c7ccc(N8CCC(=O)NC8=O)cc7)CC6)CC5)cc4)cc23)ccc1CNC(=O)c1cnn(C(C)(C)C)c1 [Example 35, 1-(tert-butyl)-N-(4-(6-(4-(4-((1-(4-(2,4-dioxotetrahydropyrimidin-1(2H)-yl)phenyl)piperidin-4-yl)methyl)piperazin-1-yl)phenyl)-7H-pyrrolo[2,3-d]pyrimidin-4-yl)-2-methylbenzyl)-1H-pyrazole-4-carboxamide] | 0.63 nM | > 10000 nM
5 | Cc1cc(-c2ncnc3[nH]c(-c4ccc(N5CCN(Cc6ccc(C7CCC(=O)NC7=O)c(F)c6)CC5)cn4)cc23)ccc1[C@@H](C)NC(=O)c1nc(C(C)(C)C)no1 (stereo partly drawn) [Example 181, 3-(tert-butyl)-N-((1R)-1-(4-(6-(5-(4-(4-(2,6-dioxopiperidin-3-yl)-3-fluorobenzyl)piperazin-1-yl)pyridin-2-yl)-7H-pyrrolo[2,3-d]pyrimidin-4-yl)-2-methylphenyl)ethyl)-1,2,4-oxadiazole-5-carboxamide] | 1.58 nM | > 10000 nM
6 | Cc1cc(-c2ncnc3[nH]c(-c4ccc(C5(O)CCN(CC6CCN(c7ccc(N8CCC(=O)NC8=O)cc7)CC6)C5)cn4)cc23)ccc1[C@@H](C)NC(=O)c1nc(C(C)(C)C)no1 (stereo partly drawn) [Example 180, 3-(tert-butyl)-N-((1R)-1-(4-(6-(5-(1-((1-(4-(2,4-dioxotetrahydropyrimidin-1(2H)-yl)phenyl)piperidin-4-yl)methyl)-3-hydroxypyrrolidin-3-yl)pyridin-2-yl)-7H-pyrrolo[2,3-d]pyrimidin-4-yl)-2-methylphenyl)ethyl)-1,2,4-oxadiazole-5-carboxamide] | 0.52 nM | 985 nM
7 | Cc1cc(-c2ncnc3[nH]c(-c4ccc(N5CCN(CC6CCN(c7ccc(N8CCC(=O)NC8=O)cc7)CC6)CC5)cc4)cc23)ccc1CNC(=O)c1noc(C(C)(C)C)n1 [Example 30, 5-(tert-butyl)-N-(4-(6-(4-(4-((1-(4-(2,4-dioxotetrahydropyrimidin-1(2H)-yl)phenyl)piperidin-4-yl)methyl)piperazin-1-yl)phenyl)-7H-pyrrolo[2,3-d]pyrimidin-4-yl)-2-methylbenzyl)-1,2,4-oxadiazole-3-carboxamide] | 1.7 nM | > 10000 nM
